The values below are quoted from earlier work in US20070207107A1, “Silicone based emulsions for topical drug delivery” (priority 2006, published 2007).

The conditions of data set [1]: drug dissolved in 98% hexamethyldisiloxane and 2% silicone gum.
For data set [2] the following is noted: result in words.

`Clc1ccc(COC(Cn2ccnc2)c2ccc(Cl)cc2Cl)cc1` (stereo not shown) [econazole nitrate]: in data set [1], the “skin penetration from silicone formulation compared with silicone-free emulsion” value is reported as “reduced penetration”. For `Cn1c(=O)c2c(ncn2C)n(C)c1=O` [Caffeine], the “skin permeability (classification)” value in data set [2] is reported as “relatively high skin permeability”. Regarding `CC(C)Cc1ccc(C(C)C(=O)O)cc1` (stereo not shown) [ibuprofen], the “skin penetration from silicone formulation compared with silicone-free emulsion” value in data set [1] is “increased the penetration”. As for `C[C@]12CCC(=O)C=C1CC[C@@H]1[C@@H]2[C@@H](O)C[C@@]2(C)[C@H]1CC[C@]2(O)C(=O)CO` [hydrocortisone], the “skin penetration from silicone formulation compared with silicone-free emulsion” value in data set [1] is listed as “formation of a reservoir of hydrocortisone in the stratum corneum”.
